In ChEMBL document CHEMBL3046855, “Chemical control of Prosopis farcta (Banks and Sol.) Macbride in the Jordan Valley” (2007):

What was measured:
Type in all cases: functional
Prosopis farcta [1] = experiment: Herbicidal activity against Prosopis farcta assessed as shoot dry weight at 1000 l/ha applied once (reference value: 0.833 metric tons/ha)
Prosopis farcta [2] = experiment: Herbicidal activity against Prosopis farcta assessed as shoot dry weight at 1000 l/ha applied twice (reference value: 1.528 metric tons/ha)
Prosopis farcta [3] = experiment: Herbicidal activity against Prosopis farcta assessed as shoot fresh weight at 1000 l/ha applied twice (reference value: 4.18 metric tons/ha)
Prosopis farcta [4] = experiment: Herbicidal activity against Prosopis farcta assessed as shoot fresh weight at 1000 l/ha applied twice followed by harvest measured after vegetative regrowth (reference value: 3.53 metric tons/ha)
Prosopis farcta [5] = experiment: Herbicidal activity against Prosopis farcta assessed as shoot fresh weight at 1000 l/ha applied once followed by harvest measured after vegetative regrowth (reference value: 2.062 metric tons/ha)
Prosopis farcta [6] = experiment: Herbicidal activity against Prosopis farcta assessed as shoot dry weight at 1000 l/ha applied twice followed by harvest measured after vegetative regrowth (reference value: 2.784 metric tons/ha)
Prosopis farcta [7] = experiment: Herbicidal activity against Prosopis farcta assessed as shoot fresh weight at 1000 l/ha applied once (reference value: 1.72 metric tons/ha)
Prosopis farcta [8] = experiment: Herbicidal activity against Prosopis farcta assessed as shoot dry weight at 1000 l/ha applied once followed by harvest measured after vegetative regrowth (reference value: 1.593 metric tons/ha)

| SMILES | Activity (Prosopis farcta [1]) [MT/ha] | Activity (Prosopis farcta [2]) [MT/ha] | Activity (Prosopis farcta [3]) [MT/ha] | Activity (Prosopis farcta [4]) [MT/ha] | Activity (Prosopis farcta [5]) [MT/ha] | Activity (Prosopis farcta [6]) [MT/ha] | Activity (Prosopis farcta [7]) [MT/ha] | Activity (Prosopis farcta [8]) [MT/ha] |
| --- | --- | --- | --- | --- | --- | --- | --- | --- |
| CCCCC(CC)COC(=O)COc1ccc(Cl)cc1Cl (stereo unspecified) | 0.625 | 0.365 | 0.8 | 0.1 | 0.277 | 0.063 | 1.33 | 0.213 |
| CNC.O=C(O)COc1ccc(Cl)cc1Cl [2,4-D-Dimethylammonium] | 0.593 | 0.345 | 0.8 | 0.58 | 0.323 | 0.511 | 1.27 | 0.144 |
| O=C(O)CNCP(=O)(O)O [GLYPHOSATE] | 0.491 | 0.32 | 0.71 | 1.23 | 0.432 | 0.976 | 1.05 | 0.317 |
| Cc1cc(Cl)ccc1OC(C)C(=O)O (stereo unspecified) [MECOPROP] | 0.423 | 0.403 | 0.93 | 1.46 | 0.655 | 1.125 | 0.9 | 0.527 |
| CCOc1cc(Oc2ccc(C(F)(F)F)cc2Cl)ccc1[N+](=O)[O-] [OXYFLUORFEN] | 0.26 | 0.479 | 0.96 | 1.47 | 4.511 | 1.147 | 0.6 | 3.481 |
| C[n+]1ccc(-c2cc[n+](C)cc2)cc1 [PARAQUAT] | 0.593 | 0.404 | 0.93 | 0.91 | 0.757 | 0.764 | 1.27 | 0.647 |
| O=C(O)COc1nc(Cl)c(Cl)cc1Cl [TRICLOPYR] | 0.567 | 0.461 | 1.07 | 0.05 | 0.301 | 0.05 | 1.21 | 0.231 |
